# Measurements as given in article PMC10511043 (Cell Structure and Function, 2020).
# Target: LCMV Z protein (Zabton-3 / Zabton FRET biosensor, trimeric tandem Z) (Lymphocytic choriomeningitis virus (strain Armstrong), UniProt P18541)
# Sequence (P18541 whole entry, looked up): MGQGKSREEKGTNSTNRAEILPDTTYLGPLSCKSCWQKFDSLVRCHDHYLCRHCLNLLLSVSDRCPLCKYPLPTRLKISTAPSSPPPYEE
smiles,measurement,value
"Nc1nc(N)c2c3c(sc2n1)CN(Cc1ccccc1)CC3 [#4, 5,6,7,8-tetrahydro-7-(benzyl)-pyrido[4',3':4,5]thieno[2,3-d]pyrimidin-2,4-diamine]",decrease of FRET/CFP emission ratio,both of them decreased the FRET ratio in a concentration-dependent manner
